# From PubChem BioAssay (NCI)
#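 Method: 48-hour compound exposure of cells in 96-well plates, five concentrations, linear interpolation of endpoints. Abbreviation: GI50, concentration required for 50% inhibition of growth. TGI marks complete inhibition of growth.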
# Tests used:
# Test in all cases: NCI anticancer screen, dose series, 48 h
# SR leukemia = test system: SR leukemia
# MDA-MB-435 = test system: MDA-MB-435
# HCT-15 colon = test system: HCT-15 colon
# OVCAR-4 ovarian = test system: OVCAR-4 ovarian
# OVCAR-8 ovarian = test system: OVCAR-8 ovarian
# SNB-75 CNS = test system: SNB-75 CNS
# NCI-H522 lung = test system: NCI-H522 lung
# MALME-3M melanoma = test system: MALME-3M melanoma
# HL-60(TB) leukemia = test system: HL-60(TB) leukemia
# UACC-257 melanoma = test system: UACC-257 melanoma
# SK-MEL-5 melanoma = test system: SK-MEL-5 melanoma
# LOX IMVI melanoma = test system: LOX IMVI melanoma
# SN12C renal = test system: SN12C renal
# HT29 colon = test system: HT29 colon
# UO-31 renal = test system: UO-31 renal
# HCC-2998 colon = test system: HCC-2998 colon
# EKVX NSCLC = test system: EKVX NSCLC
# PC-3 prostate = test system: PC-3 prostate
# CAKI-1 renal = test system: CAKI-1 renal
# SW-620 colon = test system: SW-620 colon
# MOLT-4 leukemia = test system: MOLT-4 leukemia
# SF-539 CNS = test system: SF-539 CNS
# K-562 leukemia = test system: K-562 leukemia
# OVCAR-5 ovarian = test system: OVCAR-5 ovarian
# SF-295 CNS = test system: SF-295 CNS
# SK-MEL-2 melanoma = test system: SK-MEL-2 melanoma
# SK-MEL-28 melanoma = test system: SK-MEL-28 melanoma
# ACHN renal = test system: ACHN renal
# 786-0 renal = test system: 786-0 renal
compound,measurement,setting,value
Cc1cc(OCc2n[nH]c(=S)n2/N=C/c2ccc(F)cc2)ccc1Cl,TGI,SR leukemia,39.7 µM
same,GI50,MDA-MB-435,25.9 µM
same,TGI,MDA-MB-435,> 100 µM
same,GI50,HCT-15 colon,19.2 µM
same,TGI,HCT-15 colon,47.2 µM
same,GI50,OVCAR-4 ovarian,25.4 µM
same,TGI,OVCAR-4 ovarian,55.4 µM
same,GI50,OVCAR-8 ovarian,38.8 µM
same,TGI,OVCAR-8 ovarian,> 100 µM
same,GI50,SNB-75 CNS,22.7 µM
same,TGI,SNB-75 CNS,69.2 µM
same,GI50,NCI-H522 lung,21.7 µM
same,TGI,NCI-H522 lung,54.8 µM
same,GI50,MALME-3M melanoma,25.1 µM
same,TGI,MALME-3M melanoma,56.5 µM
same,GI50,HL-60(TB) leukemia,18.3 µM
same,TGI,HL-60(TB) leukemia,47.2 µM
same,GI50,UACC-257 melanoma,26.4 µM
same,TGI,UACC-257 melanoma,62 µM
same,GI50,SK-MEL-5 melanoma,17.9 µM
same,TGI,SK-MEL-5 melanoma,35 µM
same,GI50,LOX IMVI melanoma,16.1 µM
same,TGI,LOX IMVI melanoma,32.4 µM
same,GI50,SN12C renal,19.6 µM
same,TGI,SN12C renal,37.1 µM
same,GI50,HT29 colon,18.9 µM
same,TGI,HT29 colon,37.7 µM
same,GI50,UO-31 renal,29.5 µM
same,TGI,UO-31 renal,91.6 µM
same,GI50,HCC-2998 colon,20.6 µM
same,TGI,HCC-2998 colon,43.7 µM
same,GI50,EKVX NSCLC,64.4 µM
same,TGI,EKVX NSCLC,> 100 µM
same,GI50,PC-3 prostate,29.2 µM
same,TGI,PC-3 prostate,> 100 µM
same,GI50,CAKI-1 renal,42.8 µM
same,TGI,CAKI-1 renal,> 100 µM
same,GI50,SW-620 colon,34.5 µM
same,TGI,SW-620 colon,> 100 µM
same,GI50,MOLT-4 leukemia,19.4 µM
same,TGI,MOLT-4 leukemia,51 µM
same,GI50,SF-539 CNS,25.8 µM
same,TGI,SF-539 CNS,57.4 µM
same,GI50,K-562 leukemia,20.8 µM
same,TGI,K-562 leukemia,54 µM
same,GI50,OVCAR-5 ovarian,> 100 µM
same,TGI,OVCAR-5 ovarian,> 100 µM
same,GI50,SF-295 CNS,30.1 µM
same,TGI,SF-295 CNS,> 100 µM
same,GI50,SK-MEL-2 melanoma,23.1 µM
same,TGI,SK-MEL-2 melanoma,57.2 µM
same,GI50,SK-MEL-28 melanoma,26.7 µM
same,TGI,SK-MEL-28 melanoma,74.2 µM
same,GI50,ACHN renal,31.2 µM
same,TGI,ACHN renal,87.5 µM
same,GI50,786-0 renal,29.2 µM
same,TGI,786-0 renal,87.2 µM
